Data from ChEMBL document CHEMBL1150184, “CAF-603: a new antifungal carotane sesquiterpene. Isolation and structure elucidation” (1990).
Converted amounts (≈) assume the structure as drawn.

What was measured:
Type in all cases: functional
Candida albicans [1] = test: Antifungal activity against Candida albicans MCNH3 after 24 hrs in Yeast morphology agar medium by agar dilution method; details: MCNH3, 24 h
Nakaseomyces glabratus = test: microbe, parasite or virus in culture; details: OUT 6189, 24 h
Description: Antifungal activity against Torulopsis glabrata OUT 6189 after 24 hrs in Sabouraud agar medium by agar dilution method

Pichia kudriavzevii [2] = test: microbe, parasite or virus in culture; details: IAM 4801, 24 h
Description: Antifungal activity against Candida krusei IAM 4801 after 24 hrs in Sabouraud agar medium by agar dilution method

Candida albicans [3] = test: microbe, parasite or virus in culture; details: IAM 4888, 24 h
Description: Antifungal activity against Candida albicans IAM 4888 after 24 hrs in Yeast morphology agar medium by agar dilution method

Candida albicans [4] = test: Antifungal activity against Candida albicans MCNH4 after 24 hrs in Sabouraud agar medium by agar dilution method; details: MCNH4, 24 h
Candida albicans [5] = test: Antifungal activity against Candida albicans MCNH3 after 24 hrs in Sabouraud agar medium by agar dilution method; details: MCNH3, 24 h
Candida albicans [6] = test: Antifungal activity against Candida albicans MCNH4 after 24 hrs in Yeast morphology agar medium by agar dilution method; details: MCNH4, 24 h
[7] = system: Meyerozyma guilliermondii; test: Antifungal activity against Candida guilliermondii JTD after 24 hrs in Yeast morphology agar medium by agar dilution method
Rhizopus arrhizus [8] = test: microbe, parasite or virus in culture; details: IAM 6052, 24 h
Description: Antifungal activity against Rhizopus arrhizus IAM 6052 after 24 hrs in Yeast morphology agar medium by agar dilution method

[9] = system: Meyerozyma guilliermondii; test: Antifungal activity against Candida guilliermondii JTD after 24 hrs in Sabouraud agar medium by agar dilution method
Candida albicans [10] = test: Antifungal activity against Candida albicans MCNH2 after 24 hrs in Sabouraud agar medium by agar dilution method; details: MCNH2, 24 h
Aspergillus fumigatus [11] = test: Antifungal activity against Aspergillus fumigatus IAM 2400 after 24 hrs in Yeast morphology agar medium by agar dilution method; details: IAM 2400, 24 h
Candida albicans [12] = test: Antifungal activity against Candida albicans MCNH1 after 24 hrs in Yeast morphology agar medium by agar dilution method; details: MCNH1, 24 h
Saccharomyces cerevisiae [13] = test: Antifungal activity against Saccharomyces cerevisiae IAM 4500 after 24 hrs in Yeast morphology agar medium by agar dilution method; details: IAM 4500, 24 h
Candida tropicalis [14] = test: microbe, parasite or virus in culture; details: IAM 4924, 24 h
Description: Antifungal activity against Candida tropicalis IAM 4924 after 24 hrs in Sabouraud agar medium by agar dilution method

Aspergillus niger [15] = test: Antifungal activity against Aspergillus niger NHL after 24 hrs in Yeast morphology agar medium by agar dilution method
Candida tropicalis [16] = test: microbe, parasite or virus in culture; details: IAM 4924, 24 h; remark: listed apart in the source
Description: Antifungal activity against Candida tropicalis IAM 4924 after 24 hrs in Yeast morphology agar medium by agar dilution method

Saccharomyces cerevisiae [17] = test: Antifungal activity against Saccharomyces cerevisiae IAM 4500 after 24 hrs in Sabouraud agar medium by agar dilution method; details: IAM 4500, 24 h
Candida albicans [18] = test: Antifungal activity against Candida albicans MCNH1 after 24 hrs in Sabouraud agar medium by agar dilution method; details: MCNH1, 24 h
Saccharomyces cerevisiae [19] = test: microbe, parasite or virus in culture; details: IAM 4203, 24 h
Description: Antifungal activity against Saccharomyces cerevisiae IAM 4203 after 24 hrs in Yeast morphology agar medium by agar dilution method

Saccharomyces cerevisiae [20] = test: microbe, parasite or virus in culture; details: IAM 4203, 24 h; remark: listed apart in the source
Description: Antifungal activity against Saccharomyces cerevisiae IAM 4203 after 24 hrs in Sabouraud agar medium by agar dilution method

Pichia kudriavzevii [21] = test: microbe, parasite or virus in culture; details: IAM 4801, 24 h; remark: listed apart in the source
Description: Antifungal activity against Candida krusei IAM 4801 after 24 hrs in Yeast morphology agar medium by agar dilution method

Candida albicans [22] = test: Antifungal activity against Candida albicans MCNH2 after 24 hrs in Yeast morphology agar medium by agar dilution method; details: MCNH2, 24 h
Candida albicans [23] = test: microbe, parasite or virus in culture; details: IAM 4888, 24 h; remark: listed apart in the source
Description: Antifungal activity against Candida albicans IAM 4888 after 24 hrs in Sabouraud agar medium by agar dilution method

Candida albicans [24] = test: microbe, parasite or virus in culture; details: NHL 4019, 24 h
Description: Antifungal activity against Candida albicans NHL 4019 after 24 hrs in Sabouraud agar medium by agar dilution method

Rhizopus arrhizus [25] = test: microbe, parasite or virus in culture; details: IAM 6052, 24 h; remark: listed apart in the source
Description: Antifungal activity against Rhizopus arrhizus IAM 6052 after 24 hrs in Sabouraud agar medium by agar dilution method

Aspergillus fumigatus [26] = test: Antifungal activity against Aspergillus fumigatus IAM 2400 after 24 hrs in Sabouraud agar medium by agar dilution method; details: IAM 2400, 24 h
Candida albicans [27] = test: microbe, parasite or virus in culture; details: NHL 4019, 24 h; remark: listed apart in the source
Description: Antifungal activity against Candida albicans NHL 4019 after 24 hrs in Yeast morphology agar medium by agar dilution method

Aspergillus niger [28] = test: Antifungal activity against Aspergillus niger NHL after 24 hrs in Sabouraud agar medium by agar dilution method

## CC1=CC[C@@]2(C)C[C@H](O)[C@@](O)(C(C)C)[C@@H]2CC1
Candida albicans [1]
  MIC: 3.13 µg/mL (≈ 13.1 µM)
Nakaseomyces glabratus
  MIC: 50 µg/mL (≈ 210 µM)
Pichia kudriavzevii [2]
  MIC: 25 µg/mL (≈ 105 µM)
Candida albicans [3]
  MIC: 1.56 µg/mL (≈ 6.54 µM)
Candida albicans [4]
  MIC: 6.25 µg/mL (≈ 26.2 µM)
Candida albicans [5]
  MIC: 12.5 µg/mL (≈ 52.4 µM)
Candida albicans [6]
  MIC: 1.56 µg/mL (≈ 6.54 µM)
[7]
  MIC: > 100 µg/mL
Rhizopus arrhizus [8]
  MIC: > 100 µg/mL
[9]
  MIC: > 100 µg/mL
Candida albicans [10]
  MIC: 3.13 µg/mL (≈ 13.1 µM)
Aspergillus fumigatus [11]
  MIC: 12.5 µg/mL (≈ 52.4 µM)
Candida albicans [12]
  MIC: 3.13 µg/mL (≈ 13.1 µM)
Saccharomyces cerevisiae [13]
  MIC: > 100 µg/mL
Candida tropicalis [14]
  MIC: > 100 µg/mL
Aspergillus niger [15]
  MIC: 12.5 µg/mL (≈ 52.4 µM)
Candida tropicalis [16]
  MIC: 50 µg/mL (≈ 210 µM)
Saccharomyces cerevisiae [17]
  MIC: > 100 µg/mL
Candida albicans [18]
  MIC: 6.25 µg/mL (≈ 26.2 µM)
Saccharomyces cerevisiae [19]
  MIC: 1.56 µg/mL (≈ 6.54 µM)
Saccharomyces cerevisiae [20]
  MIC: 3.13 µg/mL (≈ 13.1 µM)
Pichia kudriavzevii [21]
  MIC: 25 µg/mL (≈ 105 µM)
Candida albicans [22]
  MIC: 1.56 µg/mL (≈ 6.54 µM)
Candida albicans [23]
  MIC: 12.5 µg/mL (≈ 52.4 µM)
Candida albicans [24]
  MIC: 0.8 µg/mL (≈ 3.36 µM)
Rhizopus arrhizus [25]
  MIC: > 100 µg/mL
Aspergillus fumigatus [26]
  MIC: 25 µg/mL (≈ 105 µM)
Candida albicans [27]
  MIC: 0.4 µg/mL (≈ 1.68 µM)
Aspergillus niger [28]
  MIC: 100 µg/mL (≈ 420 µM)

## Clc1ccc(COC(Cn2ccnc2)c2ccc(Cl)cc2Cl)c(Cl)c1.O=[N+]([O-])O (stereo not drawn) [MICONAZOLE NITRATE]
Candida albicans [1]
  MIC: 12.5 µg/mL
Nakaseomyces glabratus
  MIC: 6.25 µg/mL
Pichia kudriavzevii [2]
  MIC: 0.8 µg/mL
Candida albicans [3]
  MIC: 3.13 µg/mL
Candida albicans [4]
  MIC: 6.25 µg/mL
Candida albicans [5]
  MIC: 3.13 µg/mL
Candida albicans [6]
  MIC: 6.25 µg/mL
[7]
  MIC: 3.13 µg/mL
Rhizopus arrhizus [8]
  MIC: 0.2 µg/mL
[9]
  MIC: 6.25 µg/mL
Candida albicans [10]
  MIC: 6.25 µg/mL
Aspergillus fumigatus [11]
  MIC: 1.56 µg/mL
Candida albicans [12]
  MIC: 12.5 µg/mL
Saccharomyces cerevisiae [13]
  MIC: 12.5 µg/mL
Candida tropicalis [14]
  MIC: 12.5 µg/mL
Aspergillus niger [15]
  MIC: 3.13 µg/mL
Candida tropicalis [16]
  MIC: 6.25 µg/mL
Saccharomyces cerevisiae [17]
  MIC: 3.13 µg/mL
Candida albicans [18]
  MIC: 12.5 µg/mL
Saccharomyces cerevisiae [19]
  MIC: 1.56 µg/mL
Saccharomyces cerevisiae [20]
  MIC: 6.25 µg/mL
Pichia kudriavzevii [21]
  MIC: 0.8 µg/mL
Candida albicans [22]
  MIC: 12.5 µg/mL
Candida albicans [23]
  MIC: 6.25 µg/mL
Candida albicans [24]
  MIC: 0.05 µg/mL
Rhizopus arrhizus [25]
  MIC: 0.4 µg/mL
Aspergillus fumigatus [26]
  MIC: 0.8 µg/mL
Candida albicans [27]
  MIC: < 0.05 µg/mL
Aspergillus niger [28]
  MIC: 3.13 µg/mL
